Data from a compilation of properties of binary mixtures (doi:10.1021/acs.jpcb.8b11892).

Assay: xn = mol fraction of the nth substance listed
Conditions: 101 kPa

O + CCOS(=O)(=O)[O-].CC[n+]1ccn(C)c1
x2 = 0
Conditions	viscosity [mPa·s]
293.15 K	0.97
298.15 K	0.87
303.15 K	0.78
313.15 K	0.64

CCOS(=O)(=O)[O-].CC[n+]1ccn(C)c1 + O
Conditions	electrical conductivity, 298.15 K [S/m]	electrical conductivity, 313.15 K [S/m]	viscosity, 293.15 K [mPa·s]	viscosity, 298.15 K [mPa·s]	viscosity, 303.15 K [mPa·s]	viscosity, 313.15 K [mPa·s]
x1 = 0.001	0.29	0.39	0.99	–	0.81	0.66
x1 = 0.003	–	–	1.04	–	0.84	–
x1 = 0.004	1.1	1.5	1.07	0.97	0.87	0.71
x1 = 0.006	1.5	2	1.14	1.02	0.91	0.74
x1 = 0.008	1.9	–	1.2	1.07	0.96	–
x1 = 0.013	2.5	–	1.34	1.19	1.06	–
x1 = 0.019	2.9	–	1.54	1.36	1.21	–
x1 = 0.032	3.7	5.1	1.93	1.7	1.5	1.2
x1 = 0.047	–	5.7	2.48	–	–	1.51
x1 = 0.071	4.1	5.8	3.42	2.97	2.6	2.03
x1 = 0.103	3.7	5.4	4.8	4.14	3.59	2.77
x1 = 0.151	3.2	–	–	6.06	5.22	–
x1 = 0.229	2.5	3.7	11	9.33	7.98	6
x1 = 0.303	2	3	15.2	12.9	10.9	8.15
x1 = 0.473	1.2	1.9	27.4	22.9	19.3	14.1
x1 = 0.588	0.92	–	39.5	32.7	27.2	–
x1 = 0.642	0.81	–	46.7	38.3	31.7	–
x1 = 1	0.4	0.73	122	95.5	75.4	49.4

CC[n+]1ccn(C)c1.O=S(=O)([O-])C(F)(F)F + O
Conditions	electrical conductivity, 298.15 K [S/m]	electrical conductivity, 313.15 K [S/m]	viscosity, 293.15 K [mPa·s]	viscosity, 298.15 K [mPa·s]	viscosity, 303.15 K [mPa·s]	viscosity, 313.15 K [mPa·s]
x1 = 0.001	0.28	0.37	1.01	0.9	0.81	0.67
x1 = 0.002	0.66	0.93	1.03	0.92	0.83	0.69
x1 = 0.004	1	–	–	0.96	0.86	–
x1 = 0.005	–	1.8	1.11	–	0.88	0.72
x1 = 0.008	1.7	2.3	1.16	1.03	–	0.75
x1 = 0.012	–	3.1	1.26	–	0.99	0.82
x1 = 0.017	–	–	1.38	–	–	–
x1 = 0.029	3.6	–	–	1.47	1.31	–
x1 = 0.041	–	5.6	–	–	1.57	1.26
x1 = 0.064	–	6.4	2.48	–	1.92	1.52
x1 = 0.094	4.8	6.6	3.21	2.81	2.47	1.96
x1 = 0.137	–	–	4.24	–	–	–
x1 = 0.216	3.9	5.7	6.17	5.37	4.71	3.69
x1 = 0.391	2.8	4.1	10.9	9.43	–	6.41
x1 = 0.463	2.4	3.4	–	11.8	10.3	7.95
x1 = 0.512	2.1	3.1	15.5	13.4	11.7	9.02
x1 = 0.73	1.5	2.2	27.3	23.3	20	15
x1 = 1	0.91	1.4	52.4	43.8	36.7	26.6
